For orientation: IC50 means the point on the concentration scale where inhibition reaches its midpoint. As a reminder, the pIC50 is the negative decadic logarithm of the IC50, by convention in mol/L.

This passage reports IC50 results from PubChem BioAssay AID602167 (The Scripps Research Institute Molecular Screening Center, 2012).

pIC50: −log10 of the molar value. Calls of active or inactive are those of the source. The rule behind the calls is not given here.

The assay addresses transactivating tegument protein VP16 (Human herpesvirus 1), as a GAL4-VP16 activation-domain luciferase reporter. Put plainly: GAL4-VP16 reporter repression curves – cell-based, luminescence, high throughput, SRC3 series, counter-screen for SRC3 inhibitor project, dose response (AID 602167). The note with it: VP16 transactivation luciferase reporter cells.
For `O=c1[nH]c2ccccc2n1C1CCN(C(c2cc3ccccc3o2)c2nnnn2Cc2ccccc2)CC1` (configuration not stated), the IC50 entry was “inactive”. Still for that read-out and setting: the result for `Nc1ccc(-c2cc3ccccc3oc2=O)cc1` reads > 35.9 µM (inactive); that for `O=C(CCl)N1N=C(c2ccco2)CC1c1ccco1` (configuration not stated), > 12 µM (inactive). Consider `Cc1cccc2sc(NNC(=O)c3ccc(S(=O)(=O)N4CC(C)CC(C)C4)cc3)nc12` (configuration not stated), for which the pIC50 is 5.12. Regarding `O=C(Nc1cccc(C(F)(F)F)c1)Nc1nnc([C@@H]2C[C@H](O)[C@@H](CO)O2)s1`, the pIC50 was 5.16. Consider `CCOC(=O)C(C(C)=O)c1c(Br)c(O)c(O)c2c(C(=O)c3ccc(C)cc3)coc12` (configuration not stated), for which the negative logarithm of the IC50 (pIC50) is 5.37. Same read-out and setting: the result for `O=C(CC(Nc1ccc(Cl)cc1Cl)C(=O)O)c1ccccc1` (configuration not stated) reads 5.32. As to `C=CC[n+]1c(-c2ccc(C)cc2)csc1Nc1ccc(NC(C)=O)cc1`, the IC50 is > 35.9 µM (inactive). Regarding `Cc1cccc(Oc2sc(C(=O)c3ccccc3)c(N)c2C#N)c1`, the IC50 entry was “inactive”. As for `CCOC(=O)c1cc2sccc2n1CC(=O)N1CCc2ccccc21`, the IC50 was > 35.9 µM (inactive).

Take `O=C(N/N=C/c1cc(Br)c(Br)s1)c1ccncc1`: the IC50 result was “inactive”. On to `O=[N+]([O-])c1cccc2c1ccc1ncccc12`, for which the IC50 entry is “inactive”. Turning to `Nc1nccc(-c2ccc(-n3cnc4ccccc43)cc2)n1`, the pIC50 is 5.12. In the case of `COc1cc(C(=O)OCC(=O)Nc2sccc2C(N)=O)cc(OC)c1OC`, the IC50 is > 35.9 µM (inactive).

`c1cc2[nH]snc2c2nc(C3CC3)nc12`: the pIC50 is 5.32. For the compound `CN(Cc1cnc2nc(N)nc(N)c2n1)c1ccc(C(=O)NC(CCC(=O)O)C(=O)O)c2ccccc12` (configuration not stated), the IC50 was > 35.9 µM (inactive). For the compound `Cc1cccc(CN2CCN(C(=O)CCl)CC2)c1`, the IC50 was > 12 µM (inactive).

For the compound `O=c1[nH]c(O)c(N=Nc2ccc3c(c2)OCCO3)c(=O)[nH]1`, the IC50 entry is “inactive”. In the case of `Cc1ccc(N=Nc2ccc3ccccc3c2O)cc1`, the IC50 result was “inactive”. Same read-out and setting: the result for `COc1cc(C2c3cc4c(cc3C(OC3OC5COC(c6cccs6)OC5C(O)C3O)C3COC(=O)C23)OCO4)cc(OC)c1O` (configuration not stated) reads > 35.8 µM (inactive); that for `C=CS(=O)(=O)N(Cc1ccc(Cl)c(Cl)c1)C[C@@H](O)CO`, “inactive”; that for `Nc1ccc(Oc2ccccc2-c2ccccc2)cc1`, “inactive”. Regarding `CCn1nc(/C=C/c2ccccc2)nc2c(=O)n(C)c(=O)nc1-2`, the negative-log IC50 (pIC50) is 5.29.

With `CC(=O)Nc1ccc(SCC(=O)c2cc(C)n(-c3ccccc3)c2C)cc1`, the IC50 is > 35.9 µM (inactive). The same measure, in the same setting: the result for `Cc1c(CC(=O)NCCCC(=O)O)c(=O)oc2cc3c(cc12)CCC(C)(C)O3` reads “inactive”; that for `O=c1[nH]cnc2c1nnn2C1OC(CO)C(O)C1O` (configuration not stated), “inactive”. On to `CC1(C)N=C(N)N=C(N)N1CCCCc1ccccc1`, for which the pIC50 is 5.28. As for `COc1cc2c(c(OC)c1OC)-c1ccc(SC)c(=O)cc1C(NC=O)CC2` (configuration not stated), the IC50 entry was “inactive”. `CS(=O)(=O)c1ccc(Sc2nc3ccccc3s2)c([N+](=O)[O-])c1`: the IC50 is > 35.9 µM (inactive). As to `CN(C)c1ccc(C(=S)Nc2ccccc2)cc1`, the IC50 is > 35.9 µM (inactive). In the case of `O=C(N/N=C\c1ccc([N+](=O)[O-])s1)c1cncc(Br)c1`, the pIC50 is 5.19.

In the case of `CCc1ccc(-c2nc(CSCC(=O)NCc3ccco3)c(C)o2)cc1`, the IC50 result is “inactive”.
